These results are taken from US11999742B2, “Substituted pyrrolo[1,2-b]pyridazines as anthelmintics” (BOEHRINGER INGELHEIM VETMEDICA GMBH, priority 2021, dated 2024).

Assay [1] concerns Microfilaria of Dirofilaria immitis. Description: Motility of Dirofilaria immitis microfilariae in microtiter plate, 3 days, dose response. It is filed as cell-based. Particulars: 72 h, read-out: EC50, motility of D. immitis microfilaria, three days at 37° C., 5% CO2, vs DMSO control.
The subject of assay [2] is Haemonchus contortus L1 larvae. As to the kind of experiment: Haemonchus contortus larval development L1 to L3, 4 days, dose response. Particulars: 96 h, read-out: EC50, development of H. contortus larvae from L1 to L3.
Excerpt: Biological Example 2: Screening Method to Test Activity of Compounds Against Haemonchus contortus
Assay [3] has as its system L4 stage larvae of Dirofilaria immitis. As to the kind of experiment: Motility of L4 stage Dirofilaria immitis larvae, 3 days, dose response. Particulars: 72 h, read-out: EC50, motility of L4 stage D. immitis, three days at 37° C., 5% CO2, vs DMSO control. The class given is cell-based.

Regarding `CC(C)(C)c1c(C(=O)N[C@H]2CCOc3ccccc32)cnn2c(-c3c(Cl)cc(F)cc3Cl)c(Cl)cc12` [Compound A485], the EC50 in assay [1], in assay [2] and in assay [3] was below 0.01 µM each time.
Turning to `Cc1cc2c(C(C)C)c(C(=O)N[C@H]3CCOc4ccccc43)cnn2c1-c1cc(F)cc(F)c1F` [Compound A513, N-[(4S)-3,4-dihydro-2H-1-benzopyran-4-yl]-6-methyl-4-(propan-2-yl)-7-(2,3,5-trifluorophenyl)pyrrolo[1,2-b]pyridazine-3-carboxamide], the EC50 (usually the midpoint of the concentration-response curve) in assay [1] is below 0.01 µM; in assay [2] it was 0.01 to 0.1 µM; in assay [3], below 0.01 µM.
With `Cc1cc2c(C(C)(C)C)c(C(=O)N[C@H]3CCOc4ccccc43)cnn2c1-c1cc(F)cc(Cl)c1Cl` [Compound A481, 4-tert-butyl-7-(2,3-dichloro-5-fluorophenyl)-N-[(4S)-3,4-dihydro-2H-1-benzopyran-4-yl]-6-methylpyrrolo[1,2-b]pyridazine-3-carboxamide], the figures for the EC50 in assay [1], in assay [2] and in assay [3] were 0.01 to 0.1 µM, 0.01 to 0.1 µM and below 0.01 µM, respectively.
Consider `Cc1cc2c(C(C)(C)C)c(C(=O)NN3CCOc4ccccc43)cnn2c1-c1cc(Cl)cc(Cl)c1` [Compound A482], for which the EC50 was in the range of 1 to 10 µM in assay [1], 0.1 to 1 µM in assay [2] and 0.01 to 0.1 µM in assay [3].
The corresponding values for `O=C(N[C@H]1CCOc2ccccc21)c1cnn2c(-c3cc(Cl)cc(Cl)c3Cl)c(Cl)cc2c1N1CC(F)(F)C1` [Compound A506] are below 0.01 µM, 0.01 to 0.1 µM and below 0.01 µM.
For the compound `CC(C)(C)c1c(C(=O)NN2CCOc3ccccc32)cnn2c(-c3cc(Cl)cc(Cl)c3)c(Cl)cc12` [Compound A516], the EC50 in assay [1] was below 0.01 µM; in assay [2] it was 0.01 to 0.1 µM; in assay [3], below 0.01 µM.
Regarding `CC(C)c1c(C(=O)N[C@H]2CCOc3ccccc32)cnn2c(-c3cc(F)cc(Cl)c3Cl)c(Cl)cc12` [Compound A523, 6-chloro-7-(2,3-dichloro-5-fluorophenyl)-N-[(4S)-3,4-dihydro-2H-1-benzopyran-4-yl]-4-(propan-2-yl)pyrrolo[1,2-b]pyridazine-3-carboxamide], the EC50 in assay [1], in assay [2] and in assay [3] was below 0.01 µM each time.
As for `Cc1cc2c(C(C)(C)C)c(C(=O)N[C@H]3CCc4ccccc43)cnn2c1-c1cc(F)cc(Cl)c1Cl` [Compound A558], the EC50 in assay [1], in assay [2] and in assay [3] was below 0.01 µM each time.
`CC(C)c1c(C(=O)NN2CCOc3ccccc32)cnn2c(-c3cc(F)cc(Cl)c3Cl)c(Cl)cc12` [Compound A496]: the EC50 was below 0.01 µM in assay [1], 0.01 to 0.1 µM in assay [2] and 0.01 to 0.1 µM in assay [3].
On to `CC(C)(C)c1c(C(=O)N[C@H]2CCOc3ccccc32)cnn2c(-c3cc(Cl)cc(Cl)c3Cl)c(Cl)cc12` [Compound A522], for which the EC50 in assay [1], in assay [2] and in assay [3] was below 0.01 µM in each case.
In the case of `Cc1cc2c(C(C)(C)C)c(C(=O)N[C@H]3CCCc4ccccc43)cnn2c1-c1cc(F)cc(Cl)c1Cl` [Compound A557], the EC50 in assay [1], in assay [2] and in assay [3] was below 0.01 µM in each case.
`CC(C)(C)c1c(C(=O)N[C@H]2CCOc3ccccc32)cnn2c(-c3cc(F)cc(Cl)c3Cl)c(Cl)cc12` [Compound A502, 4-tert-butyl-6-chloro-7-(2,3-dichloro-5-fluorophenyl)-N-[(4S)-3,4-dihydro-2H-1-benzopyran-4-yl]pyrrolo[1,2-b]pyridazine-3-carboxamide]: the EC50 in assay [1], in assay [2] and in assay [3] was below 0.01 µM in each case.
As for `Cc1cc2c(C(C)(C)C)c(C(=O)N[C@H]3CCOc4ccccc43)cnn2c1-c1cc(F)cc(F)c1F` [Compound A471], the EC50 in assay [1], in assay [2] and in assay [3] was below 0.01 µM in each case.
Consider `Cc1cc2c(C(C)(C)C)c(C(=O)N[C@H]3CCc4sc(Br)nc43)cnn2c1-c1cc(F)cc(Cl)c1Cl` [Compound A536a], for which the 50% effective concentration (EC50) is below 0.01 µM in assay [1], 0.01 to 0.1 µM in assay [2] and 0.01 to 0.1 µM in assay [3].
Turning to `Cc1cc2c(C(C)(C)C)c(C(=O)N[C@H]3CCOc4ccc(F)cc43)cnn2c1-c1cc(F)cc(Cl)c1Cl` [Compound A488], the half-maximal effective concentration (EC50) in assay [1] was below 0.01 µM; in assay [2] it was 0.01 to 0.1 µM; in assay [3], 0.01 to 0.1 µM.
In the case of `O=C(N[C@H]1CCOc2ccccc21)c1cnn2c(-c3cc(F)cc(Cl)c3Cl)c(Cl)cc2c1N1CC(F)(F)C1` [Compound A507], the EC50 in assay [1], in assay [2] and in assay [3] was below 0.01 µM in each case.
Regarding `Cc1cc2c(C(C)(C)C)c(C(=O)N[C@H]3CCc4sccc43)cnn2c1-c1cc(F)cc(Cl)c1Cl` [Compound A553], the EC50 in assay [1], in assay [2] and in assay [3] was below 0.01 µM each time.
As for `Cc1cc2c(C(C)C)c(C(=O)N[C@H]3CCOc4ccccc43)cnn2c1-c1cc(Cl)cc(Cl)c1` [Compound A465, 7-(3,5-dichlorophenyl)-N-[(4S)-3,4-dihydro-2H-1-benzopyran-4-yl]-6-methyl-4-(propan-2-yl)pyrrolo[1,2-b]pyridazine-3-carboxamide], the EC50 in assay [1] is 0.1 to 1 µM; in assay [2] it was 0.01 to 0.1 µM; in assay [3], 0.01 to 0.1 µM.
With `Cc1cc2c(N3CCOCC3)c(C(=O)N[C@H]3CCOc4ccccc43)cnn2c1-c1cc(Cl)cc(Cl)c1Cl` [Compound A501], the EC50 is below 0.01 µM in assay [1], 0.01 to 0.1 µM in assay [2] and below 0.01 µM in assay [3].
Consider `Cc1cc2c(C(C)(C)C)c(C(=O)N[C@H]3CCc4cccnc43)cnn2c1-c1cc(F)cc(Cl)c1Cl` [Compound A544], for which the EC50 in assay [1] lay in the range of 0.01 to 0.1 µM; in assay [2], 0.1 to 1 µM; in assay [3] it was 0.1 to 1 µM.
As for `Cc1cc2c(C(C)(C)C)c(C(=O)NC3CCCc4ncsc43)cnn2c1-c1cc(F)cc(Cl)c1Cl` (stereo not drawn) [Compound A533], the EC50 in assay [1] was 0.01 to 0.1 µM; in assay [2] it was 0.1 to 1 µM; in assay [3], 0.1 to 1 µM.
As for `Cc1cc2c(C(C)C)c(C(=O)NN3CCOc4ccccc43)cnn2c1-c1cc(F)cc(Cl)c1Cl` [Compound A498], the concentration giving a half-maximal response (EC50) is below 0.01 µM in assay [1], 0.01 to 0.1 µM in assay [2] and below 0.01 µM in assay [3].
On to `O=C(N[C@H]1CCOc2ccccc21)c1cnn2c(-c3cc(F)cc(Cl)c3Cl)c(Cl)cc2c1N1CCC1` [Compound A503], for which the EC50 was below 0.01 µM in assay [1], 0.01 to 0.1 µM in assay [2] and below 0.01 µM in assay [3].
Take `Cc1cc2c(C(C)(C)C)c(C(=O)N[C@H]3CCCc4cc(Cl)ccc43)cnn2c1-c1cc(F)cc(Cl)c1Cl` [Compound A549]: the EC50 in assay [1] fell in the range of 0.1 to 1 µM; in assay [2], 1 to 10 µM; in assay [3] it was 0.1 to 1 µM.
Take `Cc1cc2c(C(C)(C)C)c(C(=O)N[C@H]3CCOc4ccccc43)cnn2c1N1C[C@H](C)C[C@H](C)C1` [Compound A528]: the results for the EC50 in assay [1], in assay [2] and in assay [3] were 0.01 to 0.1 µM, 0.1 to 1 µM and 0.01 to 0.1 µM, respectively.
For the compound `Cc1cc2c(N3CC(F)(F)C3)c(C(=O)N[C@H]3CCOc4ccccc43)cnn2c1-c1cc(F)cc(Cl)c1Cl` [Compound A504], the EC50 in assay [1] is below 0.01 µM; in assay [2] it was 0.01 to 0.1 µM; in assay [3] it was below 0.01 µM.
